From patent US20250201546A1, “METHOD FOR PROCESSING SUBSTRATE, KIT FOR PROCESSING SUBSTRATE, AND METHOD FOR MANUFACTURING SEMICONDUCTOR SUBSTRATE” (TOKYO OHKA KOGYO CO., LTD., priority 2023, published 2025)

Assay: Hansen solubility parameter (SP value and terms) of reagents
Assay type: physicochemical
Set-up: unit: MPa^0.5
Conditions: SP^2=δD^2+δP^2+δH^2
Text: The SP value of Hansen solubility parameter herein is a value obtained by dividing the solubility parameter introduced by Hildebrand into three parameters, the dispersion term OD, the polarity term OP, and the hydrogen bond term OH, and plotting a point in a three-dimensional space (Hansen space, HSP space).
The dispersion term δD represents the effect due to dispersion force, the polarity term δP represents the effect due to dipole-dipole force, and the hydrogen bond term OH represents the effect due to hydrogen bond force. […]
δD: The energy derived from dispersion forces between molecules (the dispersion term) δP: The energy derived from polar forces between molecules (the polarity term) δH: The energy derived from hydrogen bond forces between molecules (the hydrogen bond term) The unit of each of the terms is MPa^0.5.
There is a relationship between Hildebrand's SP value and Hansen's HSP as shown below.
(Hildebrand's SP)^2=δD^2+δP^2+δH^2
Suitable examples of the silane coupling agent having a SP value of 15 or more may include the followings. Needless to say, the silane coupling agent used in the present embodiment is not limited to those below.

SMILES | SP value
CCO[Si](CCCNCCN)(OCC)OCC [AEAPTES, 3-(2-aminoethylamino) propyltriethoxysilane] | 15.6
CO[Si](CCCNCCCCCCN)(OC)OC [AHAPTMS, 3-(6-aminohexylamino) propyltrimethoxysilane] | 15.3
CO[Si](C)(OC)OC [MTMS, methyltrimethoxysilane] | 15.2
CCO[Si](CCCN)(OCC)OCC [APTES, 3-aminopropyltriethoxysilane] | 15.2
CO[Si](CCCN)(OC)OC [APTMS, 3-aminopropyltrimethoxysilane] | 15.8
CO[Si](CCCNCCN)(OC)OC [AEAPTMS, 3-(2-aminoethylamino) propyltrimethoxysilane] | 16.2
